Laboratory results from patent publication EP0558245A1, “Heterobicyclic compounds as antagogists of alpha-1 adrenergic and SHT1A receptors” (priority 1992, dated 1993).
Structures can show the parent of a compound that is named as a salt. Where two headings read alike, the source gives them in different places.

Experiments:
[1] = test system: noradrenaline induced contraction of urethra; experiment: Effects on urethral contractions (noradrenaline-induced) in anaesthetized dogs; assay type: in vivo; conditions: for ED50: Canis lupus familiaris, iv; for DBP/Urethra ratio: ratio between the active doses (selectivity index), * = non-selective: substantial effect on both urethra and DBP
From the text: (§1) In order to monitor systemic blood pressure (BP), a PE catheter was introduced into the aortic arch through the right common carotid artery.
(§2) A collateral of the left femoral vein was cannulated for infusion of anaesthetic, and the right femoral vein was cannulated for administration of drugs. For intrarterial (i.a.) injection of noradrenaline (NA), a PE catheter was introduced into the lower portion of abdominal aorta via the right external iliac artery. Through such procedure, NA was selectively distributed to the lower urinary tract. Via a midline laparotomy, the urinary bladder and proximal urethra were exposed. In order to prevent the filling of the bladder, the two ureters were cannulated and the urine led outside. In order to record the prostatic urethral pressure, a Mikro-tip catheter (6 F) was introduced into the bladder via the external urethral meatus, and withdrawn until the pressure transducer was positioned in the prostatic urethra. A ligature was secured between the neck of the bladder and urethra to isolate the response of the latter and avoid any interaction with the bladder. Another ligature was put around the Mikro-tip catheter at the external urethral meatus, to secure the catheter itself. After a stabilizing period following surgical procedure (30 min), in which arterial and prostatic urethral pressure were continuously monitored as basal values, i.a. administration of NA was made at intervals of 10 min. The dose of NA chosen was such to produce an increase of at least 100% in urethral pressure. The test compounds were administered i.v. in a cumulative manner with intervals of 15-20 min between administrations. I.a. injections of NA were repeated approximately 5 min. after every dosing of test compound. Dose response curves were constructed computing the percentage inhibition to the increase in urethral pressure (NA induced), and the percentage drop in blood pressure produced by the test compound.

diastolic blood pressure = experiment: Effects on blood pressure in anaesthetized dogs; assay type: in vivo; conditions: Canis lupus familiaris, iv
From the text: as §1, §2

[2] = Acute toxicity in mice after intraperitoneal and oral administration; conditions: mouse, in vivo
Outline: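 Female albino Swiss mice (20-30 g) dosed i.p. or orally at four log-scaled doses in 0.5% Methocel (10 ml/kg), 4 mice/dose. Mortality recorded at 7 days; LD₅₀ with fiducial limits by Weil's method.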

α₁ receptors = experiment: [3H]prazosin binding (α1 receptors), rat cerebral cortex membranes; conditions: for IC50: rat cerebral cortex crude membranes, [3H]prazosin 0.35 nM, 25°C 30 min, read-out: Receptor Binding IC50 (nM) α1
5HT1A receptors = target: T1, 5HT1A receptors (Rattus norvegicus, UniProt P19327); experiment: [3H]8-OH-DPAT binding (5HT1A receptors), rat hippocampus membranes; conditions: for IC50: rat hippocampus crude membranes, [3H]8-OH-DPAT 1.0 nM, 25°C 30 min, read-out: Receptor Binding IC50 (nM) 5-HT1a
T1 construct: Rat hippocampi were homogenized; from tissue; host or cells: rat hippocampus membranes
T1 sequence (P19327 1-422): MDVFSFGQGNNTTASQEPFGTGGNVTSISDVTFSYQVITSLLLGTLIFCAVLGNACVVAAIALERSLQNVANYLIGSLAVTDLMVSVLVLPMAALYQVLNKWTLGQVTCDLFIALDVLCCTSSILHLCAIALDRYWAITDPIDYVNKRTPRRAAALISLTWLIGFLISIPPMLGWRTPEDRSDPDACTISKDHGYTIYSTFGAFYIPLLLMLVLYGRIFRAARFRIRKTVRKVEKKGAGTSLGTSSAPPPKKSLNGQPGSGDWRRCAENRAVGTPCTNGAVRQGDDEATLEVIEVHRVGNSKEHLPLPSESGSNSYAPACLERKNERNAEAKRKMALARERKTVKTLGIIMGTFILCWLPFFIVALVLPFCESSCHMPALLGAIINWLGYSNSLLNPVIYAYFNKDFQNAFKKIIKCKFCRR
Method: Rat hippocampi were homogenized in 50 volumes of original wet weight of ice-cold 50 mM Tris-HCl buffer pH 7.4. The homogenates were centrifuged at 48,000 x g for 10 minutes, and the pellets were resuspended in the same volume of ice-cold buffer, incubated for 10 minutes at 37°C, centrifuged and resuspended two more times. The final pellets obtained were resuspended in the same volume of buffer and incubated according to the conditions reported in the table below.
The incubations were terminated after the appropriate time (see table) by rapid filtration through Whatman GF/B filters using a Brandel cell harvester. The filters were washed twice with 15 ml of ice-cold buffer (see table). The radioactivity retained on the filters was determined by liquid scintillation counting. Nonspecific binding (which amounted generally to 10-30%) was evaluated by adding high concentrations of the specific displacers (see table). All the compounds were initially tested at 1x10⁻⁶ M concentration, and in the presence of significant displacing activity, a complete competition curve was generated (down to a concentration of 10⁻¹¹ M). All the samples were run in triplicate.
The competition curves were always analyzed (to evaluate the IC₅₀ values) by non linear curve fitting of the logistic equation according to the method reported by De Lean et al. (Am. J. Physiol., 235, E97, 1978), utilizing the ALLFIT program [publically available from the National Institutes of Health (N.I.H.) Bethesda, Maryland, USA] written for the IBM PC.

rat bladder strips = experiment: K+-induced contractions of rat bladder strips; assay type: cell-based
Method: The whole bladder of the rat was removed and immediately placed in Krebs solution warmed at 37°C. […] Each strip was placed in a 10 ml organ bath and connected, under a constant load of 1 g, to an isometric strain gauge (DY-1 Basile, Comerio, Varese, Italy). […] After a 60 minutes equilibration period the strips were exposed to 80 mM KCl (final concentration). […] When the tonic contraction was stable, the strips were washed and 30 minutes later a new contraction was induced. After having recorded two or more reproducible responses, one concentration of the tested drugs was added to the bath and 30 minutes later a new contraction was induced. The experimental groups consisted of at least two preparations taken from different animals for each concentration of drug tested. The IC₅₀ values of inhibition of agonist-induced contractions were evaluated by linear regression analysis.

[3] = anaesthetized male beagle dogs, i.v. cumulative, active dose in inhibiting by 50% the noradrenaline induced contraction of urethra, read-out: Urethra ED50
[4] = anaesthetized male beagle dogs, i.v. cumulative, active dose in lowering diastolic blood pressure by 25%, read-out: DBP ED25
[5] = ip, female albino Swiss mice, intraperitoneal, mortality recorded 7 days after administration, read-out: Acute Toxicity in Mice LD50 (mg/kg) i.p.
[6] = female albino Swiss mice, oral, mortality recorded 7 days after administration, read-out: Acute Toxicity in Mice LD50 (mg/kg) p.o.
[7] = 80 mM KCl, phasic contraction, drug added 30 minutes before, read-out: K+ Stimulation of Rat Bladder IC50 (μM) Contractions Phasic
[8] = 80 mM KCl, tonic contraction, drug added 30 minutes before, read-out: K+ Stimulation of Rat Bladder IC50 (μM) Contractions Tonic

SMILES	IC50 (α₁ receptors) [nM]	IC50 (5HT1A receptors) [nM]	LD50 at 168 h [2, 5] [mg/kg]	LD50 at 168 h [2, 6] [mg/kg]	IC50 (rat bladder strips; [7]) [µM]	IC50 (rat bladder strips; [8]) [µM]	other results
COc1ccccc1N1CCN(CCCCOc2cccc3c(=O)c(C)c(-c4ccccc4)oc23)CC1.Cl.Cl							ED50 ([1]; read-out: Urethra ED50 (µg/kg)): 57 µg/kg; DBP/Urethra ratio [1]: 13.1; ED25 (diastolic blood pressure; read-out: DBP ED25 (µg/kg)): 745 µg/kg; LD50 at 168 h ([2]; ip, read-out: Acute Toxicity in Mice LD50 (mg/kg) i.p.): 399 mg/kg; LD50 at 168 h ([2]; po, read-out: Acute Toxicity in Mice LD50 (mg/kg) p.o.): 2240 mg/kg
COc1ccccc1N1CCN(CCCOC(=O)c2cccc3c(=O)c(C)c(-c4ccccc4)oc23)CC1.Cl.Cl [Example 5, 8-{3-[4-(2-methoxyphenyl)-1-piperazinyl]-propoxycarbonyl}-3-methyl-4-oxo-2-phenyl-4H-1-benzopyran dihydrochloride]	20	19	621	> 3000			ED50 [1, 3]: 37 µg/kg; DBP/Urethra ratio [1]: 29.0; ED25 (diastolic blood pressure; [4]): 1070 µg/kg
COc1ccccc1N1CCN(CCN(C)C(=O)c2cccc3c(=O)c(C)c(-c4ccccc4)oc23)CC1.Cl [Example 16, 8-{N-methyl-2-[4-(2-methoxyphenyl)-1-piperazinyl]-ethylcarbamoyl}-3-methyl-4-oxo-2-phenyl-4H-1-benzopyran monohydrochloride]	220	1050	345	778	1.6	2.2	
COc1ccccc1N1CCN(CCC(O)c2cccc3c(=O)c(C)c(-c4ccccc4)oc23)CC1.Cl (centres unmarked) [Example 20, 8-{1-Hydroxy-3-[4-(2-methoxyphenyl)-1-piperazinyl]-propyl}-3-methyl-4-oxo-2-phenyl-4H-1-benzopyran hydrochloride]	169	85	297	594	2.7	2.5	
COc1ccccc1N1CCN(CCCC(O)c2cccc3c(=O)c(C)c(-c4ccccc4)oc23)CC1.Cl.O (centres unmarked) [Example 21, 8-{1-hydroxy-4-[4-(2-methoxyphenyl)-1-piperazinyl]-butyl}-3-methyl-4-oxo-2-phenyl-4H-1-benzopyran hydrochloride monohydrate]	17	33	297	566			ED50 ([1]; read-out: Urethra ED50 (µg/kg)): 6.6 µg/kg; DBP/Urethra ratio [1]: 19.2; ED25 (diastolic blood pressure; read-out: DBP ED25 (µg/kg)): 127 µg/kg
COc1ccccc1N1CCN(CCSCc2cccc3c(=O)c(C)c(-c4ccccc4)oc23)CC1.Cl [Example 29, 8-{2-[4-(2-methoxyphenyl)-1-piperazinyl]-ethylthiomethyl}-3-methyl-4-oxo-2-phenyl-4H-1-benzopyran hydrochloride]	86	45	730	> 3000	10	10	
COc1ccccc1N1CCN(CCNc2cccc3c(=O)c(C)c(-c4ccccc4)oc23)CC1.Cl.Cl [Example 32, 8-{2-[4-(2-methoxyphenyl)-1-piperazinyl]-ethylamino}-3-methyl-4-oxo-2-phenyl-4H-1-benzopyran dihydrochloride]	119	46	301	> 2000	10	> 10	
COc1ccccc1N1CCN(CCCNc2cccc3c(=O)c(C)c(-c4ccccc4)oc23)CC1 [Example 33, 8-{3-[4-(2-methoxyphenyl)-1-piperazinyl]-propylamino}-3-methyl-4-oxo-2-phenyl-4H-1-benzopyran hydrochloride 2.75-hydrate]	17	38	399	> 2000	10	10	
COc1ccccc1N1CCN(CCCCNc2cccc3c(=O)c(C)c(-c4ccccc4)oc23)CC1 [Example 34, 8-{4-[4-(2-methoxyphenyl)-1-piperazinyl]-butylamino}-3-methyl-4-oxo-2-phenyl-4H-1-benzopyran hydrochloride hemihydrate]	30	34	> 500		2.8	3.6	
COc1cccc(OC)c1OCCNCCOc1cccc2c(=O)c(C)c(-c3ccccc3)oc12.Cl [Example 44, 8-{2-[2-(2,6-dimethoxyphenoxy)-ethylamino]-ethoxy}-3-methyl-4-oxo-2-phenyl-4H-1-benzopyran hydrochloride]	685	201	84	399	0.6	0.5	
COc1ccccc1N1CCN(CCCNC(=O)c2cccc3c2OCCC3=O)CC1.CS(=O)(=O)O [Example 87, 8-{3-[4-(2-methoxyphenyl)-1-piperazinyl]-propylcarbamoyl}-2,3-dihydro-4-oxo-4H-1-benzopyran methanesulphonate]	119	107	237	> 500			
Cc1c(-c2ccccc2)oc2c(C(=O)OCCN3CCCCC3)cccc2c1=O [Flavoxate, 8-(2-piperidinoethoxycarbonyl)-3-methyl-4-oxo-2-phenyl-4H-1-benzopyran, reference compound]	> 1000	> 1000	385	808	13	13	affinity for the α₁-adrenergic receptors (α₁ receptors; statement in words): practically devoid of affinity; affinity for the 5HT1A-serotoninergic receptors (5HT1A receptors; statement in words): practically devoid of affinity
COc1cc2nc(N3CCN(C(=O)c4ccco4)CC3)nc(N)c2cc1OC [Prazosin, 1-(4-amino-6,7-dimethoxy-2-quinazonlinyl)-4-(2-furoyl)-piperazine, reference compound]							ED50 [1, 3]: 3.6 µg/kg; DBP/Urethra ratio [1]: 1.8*; selectivity for the mammalian lower urinary tract (antagonizing urethral contractions versus lowering blood pressure) ([1]; statement in words): do not exhibit such selectivity; ED25 (diastolic blood pressure; read-out: DBP ED25 (µg/kg)): 6.6 µg/kg
Cc1c(-c2ccccc2)oc2c(C(=O)OC(C)(C)CN3CCCCC3)cccc2c1=O.Cl [Terflavoxate, 8-(1,1-dimethyl-2-piperidino-ethoxycarbonyl)-3-methyl-4-oxo-2-phenyl-4H-1-benzopyran hydrochloride, reference compound]							ED50 [1, 3]: > 10000 µg/kg; effect on urethral contractions ([1]; statement in words): no effect on urethral contractions; ED25 (diastolic blood pressure; [4]): 6060 µg/kg
COc1ccccc1N1CCN(CCCCOc2cccc3c(=O)c(C)c(-c4ccccc4)oc23)CC1.Cl.Cl [dihydrochloride]	43	53					IC50 (rat bladder strips; read-out: K+ Stimulation of Rat Bladder IC50 (μM) Contractions Phasic): 0.7 µM; IC50 (rat bladder strips; read-out: K+ Stimulation of Rat Bladder IC50 (μM) Contractions Tonic): 1.4 µM
